Legend:
[1] = system: various cancer cell lines; experiment: Cancer cell testing, inhibitory activity in various cancer cell lines (CellTiter-Glo, 72 hours); format: cell-based
Procedure: The inhibitory activity of representative Compounds of the Disclosure was tested in various cancer cell lines according to the following protocol.
Cells were harvested from flasks into cell culture media and cell numbers were counted. Cells were then diluted with culture medium to the desired density, and 40 μL of cell suspension were added into each well of a 384-well cell culture plate (Corning, #3764). Plates were covered with lids and placed at room temperature for 30 minutes without shaking, and then transferred into a 37° C. 5% CO2 incubator.
Cpd. Nos. 30 and 34 were dissolved in DMSO to form a 10 mM stock solution. Paclitaxel as the control compound was dissolved in DMSO to form a 0.33 mM stock solution. 45 μL of stock solution was transferred to a 384 pp-plate and 3-fold, 10-point dilutions were performed by transferring 15 μL of compound into 30 μL of DMSO using a TECAN (EVO200) liquid handler. Plates were spun at room temperature at 1,000 RPM for 1 minute, and shaken at a plate shaker for 2 minutes. […] of diluted compound were transferred from compound source plate into the cell plate. After compound treatment for 72 hours, CTG detection was performed for compound treatment plates as described in the “Detection” section.
CellTiter Glo reagents were thawed and equilibrated to room temperature before the experiment. Plates were removed from incubators and equilibrated at room temperature for 15 minutes. 40 μL of CellTiter-Glo reagent was added to each well to be detected at 1:1 to culture medium. Then, plates were placed at room temperature for 30 min followed by reading on Ensight.
Inhibition activity was calculated following the formula below:
[formula] • HC: 0.3% DMSO, LC: 1 μM Paclitaxel
IC50S were calculated by fitting the Curve using Xlfit (v5.3.1.3) according to the following equation: […]

LK-2 = experiment: Cancer cell viability, LK-2 (CellTiter-Glo); format: cell-based; details: Homo sapiens, LK-2, 72 h, LK-2 cells, 3 days, read-out: Cellular IC50 (μM) LK-2
Procedure, shortened: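 A549 and LK-2 cells were seeded overnight at 20 K/mL and 35 K/mL respectively. They were then exposed for 3 days to nine three-fold dilutions, typically from 30 µM final. Viability was read as CellTiter-Glo luminescence after a 15 min lysis.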

[2] = HCC15, HCC-15, LUNG, KEAP1 p.G364C
[3] = HEC59, UTERINE/ENDOMETRIAL, NRF2 p.N329D
[4] = HEC151, UTERINE/ENDOMETRIAL, KEAP1 p.A34S, NRF2 p.L23GfsTer5
[5] = HEC-251, HEC251, UTERINE/ENDOMETRIAL, KEAP1 p.Q227R, NRF2 p.K516T
[6] = HEC-265, UTERINE/ENDOMETRIAL, KEAP1 p.R483C
[7] = HO1U1, HEAD & NECK, NRF2 p.E82D
[8] = Homo sapiens, A549, A549, LUNG, KEAP1 p.G333C
[9] = Homo sapiens, COR-L88, CORL88, LUNG, NRF2 p.Q26P
[10] = Homo sapiens, EBC-1, EBC1, LUNG, NRF2 p.D77V
[11] = Homo sapiens, HCC44, HCC44, UTERINE/ENDOMETRIAL, KEAP1 p.F211C
[12] = Homo sapiens, HCC95, HCC-95, LUNG, no KEAP1/NRF2 mutation listed
[13] = Homo sapiens, HEC-1-A, HEC1A, UTERINE/ENDOMETRIAL, KEAP1 p.Y33C, NRF2 G31R
[14] = Homo sapiens, HEC-1B, HEC1B, UTERINE/ENDOMETRIAL, NRF2 p.G31R
[15] = Homo sapiens, KYSE-70, KYSE70, ESOPHAGEAL, NRF2 p.W24C
[16] = Homo sapiens, KYSE-180, KYSE180, ESOPHAGEAL, NRF2 p.P278Q
[17] = Homo sapiens, KYSE-520, KYSE520, ESOPHAGEAL, NRF2 p.T80I
[18] = Homo sapiens, MES-SA, MESSA, UTERINE/ENDOMETRIAL, NRF2 p.E79K
[19] = Homo sapiens, MRC5, MRC-5, NORMAL LUNG FIBROBLAST
[20] = Homo sapiens, NCI-H23, NCI-H23, LUNG, KEAP1 p.Q193H
[21] = Homo sapiens, NCI-H358, NCI-H358, LUNG, no KEAP1/NRF2 mutation listed
[22] = Homo sapiens, NCI-H460, NCI-H460, LUNG, KEAP1 p.D236H
[23] = Homo sapiens, NCI-H1792, NCI-H1792, LUNG, KEAP1 p.G462W
[24] = Homo sapiens, NCI-H1944, NCI-H1944, LUNG, KEAP1 p.R320L
[25] = Homo sapiens, NCI-H2030, NCI-H2030, LUNG, KEAP1 p.V568F
[26] = Homo sapiens, NCI-H2122, NCI-H2122, LUNG, KEAP1 p.A170_R204del
[27] = Homo sapiens, NCI-H2126, NCI-H2126, LUNG, KEAP1 p.R320L
[28] = Homo sapiens, NCI-H2228, NCI-H2228, LUNG, NRF2 p.G31A
[29] = Homo sapiens, RL95-2, RL95-2, UTERINE/ENDOMETRIAL, KEAP1 p.R116W
[30] = Homo sapiens, SHP77, SHP-77, LUNG, KEAP1 p.D294Y
[31] = Homo sapiens, UMC-11, UMC11, LUNG, KEAP1 p.G571A
[32] = JHOC-5, UTERINE/ENDOMETRIAL, KEAP1 p.R483H
[33] = MORCPR, LUNG, KEAP1 p.K551SfsTer44
[34] = NCI-H322, NCI-H322, LUNG, KEAP1 p.R460S
[35] = NCI-H1435, NCI-H1435, LUNG, KEAP1 p.R413L
[36] = NCI-H1688, NCI-H1688, LUNG, KEAP1 p.G511S
[37] = NCI-H2066, NCI-H2066, LUNG, KEAP1 p.P361L
[38] = NCI-H2110, NCI-H2110, LUNG, KEAP1 p.G429C
[39] = NCI-H2172, NCI-H2172, LUNG, KEAP1 p.G430C
[40] = OE21, OE21, ESOPHAGEAL, NRF2 p.D318H
[41] = RERF-LC-Sq1, RERFLCSQ1, LUNG, NRF2 p.D29H
[42] = RMUG-S, UTERINE/ENDOMETRIAL, KEAP1 p.G603V
[43] = SW579, SW579, HEAD & NECK, NRF2 p.D77Y

## Cc1sc(NC(=O)Cc2ccc(F)c(OCCOCCNc3ccc4c(c3)CN(C3CCC(=O)NC3=O)C4=O)c2)nc1-c1ccc2c(c1)CCN2C(=O)c1cncn1C (centres unmarked) [Cpd. No. 30, 2-(3-(2-(2-((2-(2,6-dioxopiperidin-3-yl)-1-oxoisoindolin-5-yl)amino)ethoxy)ethoxy)-4-fluorophenyl)-N-(5-methyl-4-(1-(1-methyl-1H-imidazole-5-carbonyl)indolin-5-yl)thiazol-2-yl)acetamide]
[1]; [2]
  IC50: 4.1 nM
[1]; [3]
  IC50: 2.8 nM
[1]; [4]
  IC50: 4.8 nM
[1]; [5]
  IC50: < 1.5 nM
[1]; [6]
  IC50: 8.7 nM
[1]; [7]
  IC50: 12.8 nM
[1]; [8]
  IC50: 4.3 nM
[1]; [9]
  IC50: < 1.5 nM
[1]; [10]
  IC50: 11.3 nM
[1]; [11]
  IC50: 397 nM
[1]; [12]
  IC50: 302 nM
[1]; [13]
  IC50: 2.9 nM
[1]; [14]
  IC50: 31.9 nM
[1]; [15]
  IC50: 8.8 nM
[1]; [16]
  IC50: 4 nM
[1]; [17]
  IC50: 1.7 nM
[1]; [18]
  IC50: 4.7 nM
[1]; [19]
  IC50: 12.5 nM
[1]; [20]
  IC50: 126 nM
[1]; [21]
  IC50: 11.6 nM
[1]; [22]
  IC50: 15500 nM
[1]; [23]
  IC50: 6.5 nM
[1]; [24]
  IC50: 25.2 nM
[1]; [25]
  IC50: 169 nM
[1]; [26]
  IC50: 54.9 nM
[1]; [27]
  IC50: 98.9 nM
[1]; [28]
  IC50: 12.6 nM
[1]; [29]
  IC50: 2.8 nM
[1]; [30]
  IC50: 29.6 nM
[1]; [31]
  IC50: 5.8 nM
[1]; [32]
  IC50: 11.5 nM
[1]; LK-2, LUNG, NRF2 p.E79K
  IC50: < 1.5 nM
[1]; [33]
  IC50: 3.4 nM
[1]; [34]
  IC50: 3.9 nM
[1]; NCI-H920, LUNG, KEAP1 p.G603V
  IC50: 191 nM
[1]; [35]
  IC50: 38 nM
[1]; [36]
  IC50: < 2 nM
[1]; [37]
  IC50: 4.4 nM
[1]; [38]
  IC50: 5.1 nM
[1]; [39]
  IC50: 5.9 nM
[1]; [40]
  IC50: 156 nM
[1]; [41]
  IC50: 12.6 nM
[1]; [42]
  IC50: 21.5 nM
[1]; SNU2535, LUNG, NRF2 p.D29H
  IC50: 8.9 nM
[1]; [43]
  IC50: 6.7 nM
LK-2
  IC50: 0.003 µM

## Cc1sc(NC(=O)Cc2cccc(OCCOCCNc3cccc4c3C(=O)N(C3CCC(=O)NC3=O)C4=O)c2)nc1-c1ccc2c(c1)CCN2C(=O)C1CC1 (centres unmarked) [Cpd. No. 34, N-(4-(1-(cyclopropanecarbonyl)indolin-5-yl)-5-methylthiazol-2-yl)-2-(3-(2-(2-((2-(2,6-dioxopiperidin-3-yl)-1,3-dioxoisoindolin-4-yl)amino)ethoxy)ethoxy)phenyl) acetamide]
[1]; [2]
  IC50: 30.1 nM
[1]; [3]
  IC50: 20.4 nM
[1]; [4]
  IC50: 86.7 nM
[1]; [5]
  IC50: 10.6 nM
[1]; [6]
  IC50: 66.7 nM
[1]; [7]
  IC50: 54.8 nM
[1]; [8]
  IC50: 20.6 nM
[1]; [9]
  IC50: 4.4 nM
[1]; [10]
  IC50: 152 nM
[1]; [11]
  IC50: > 30000 nM
[1]; [12]
  IC50: > 30000 nM
[1]; [13]
  IC50: 20.3 nM
[1]; [14]
  IC50: > 30000 nM
[1]; [15]
  IC50: 33.6 nM
[1]; [16]
  IC50: 45.8 nM
[1]; [17]
  IC50: 13.2 nM
[1]; [18]
  IC50: 35.1 nM
[1]; [19]
  IC50: 35.4 nM
[1]; [20]
  IC50: > 30000 nM
[1]; [21]
  IC50: 44.9 nM
[1]; [22]
  IC50: > 30000 nM
[1]; [23]
  IC50: 41.7 nM
[1]; [24]
  IC50: 107 nM
[1]; [25]
  IC50: 224 nM
[1]; [26]
  IC50: > 30000 nM
[1]; [27]
  IC50: > 30000 nM
[1]; [28]
  IC50: 57.4 nM
[1]; [29]
  IC50: 20.9 nM
[1]; [30]
  IC50: 22.5 nM
[1]; [31]
  IC50: 12.2 nM
[1]; [32]
  IC50: 54.2 nM
[1]; LK-2, LUNG, NRF2 p.E79K
  IC50: 9.4 nM
[1]; [33]
  IC50: 33.2 nM
[1]; [34]
  IC50: 23.9 nM
[1]; NCI-H920, LUNG, KEAP1 p.G603V
  IC50: > 30000 nM
[1]; [35]
  IC50: 150 nM
[1]; [36]
  IC50: 13 nM
[1]; [37]
  IC50: 15.9 nM
[1]; [38]
  IC50: 42.1 nM
[1]; [39]
  IC50: 14.2 nM
[1]; [40]
  IC50: > 30000 nM
[1]; [41]
  IC50: 85.6 nM
[1]; [42]
  IC50: 18.1 nM
[1]; SNU2535, LUNG, NRF2 p.D29H
  IC50: > 30000 nM
[1]; [43]
  IC50: 73.1 nM
LK-2
  IC50: 0.02 µM

Reference: patent US20260055097A9, “NRF2 PROTEIN DEGRADERS” (Ganymede Oncology, Inc., priority 2022, published 2026)
